Reference: publication PMC11335710 (GeroScience, 2024)
“Also recorded” adds a separate entry of the source. Ends that are not written are not given here.

Legend:
[1] = tested on: rat primary ventral mesencephalic cultures; assay: 6-OHDA toxicity in rat primary ventral mesencephalic cultures (TH cell density); assay type: cell-based; conditions: rat primary VM cultures, 6-OHDA 100 µM 2 h; for Effect on 6-OHDA-mediated reduction in TH cell density: GLP-1 or GIP 10 nM, fixed 22 h after washing; for Effect of co-administered DPP-4 inhibitor on protective response of GIP and GLP-1 (TH cell density): PF-00734,200 1 µM with GLP-1 or GIP 10 nM
Source text: Primary cultures were generated from embryonic (E14-15) ventral mesencephalon (VM) brain tissue removed from fetuses of timed-pregnant Sprague–Dawley rats (Charles River Laboratories, Wilmington, MA), in line with published procedures with minor modifications. Briefly, the whole brain was removed aseptically, and a small piece of tissue containing the VM was separated. Blood vessels and meninges were detached, and remaining pooled VM tissues were gently trypsinized (0.25% (Invitrogen, Carlsbad, CA), 15 min at 37°C). Trypsin was removed with pre-warmed DMEM/F-12 (Invitrogen), and cells were dissociated by trituration and then counted and plated into 96-well (6.0 × 10^4/well) cell culture plates that were pre-coated with poly-D-lysine (Sigma-Aldrich). The culture plating medium was Dulbecco’s modified Eagle medium/F12 supplemented with 10% heat-inactivated fetal bovine serum, 1 mM L-glutamine, and 2% B27 (Invitrogen). VM cells were maintained at 37°C in a humidified atmosphere (5% CO2 and 95% air) and fed by exchanging 50% of media with feed media (Neurobasal medium, Invitrogen) with 0.5 mM L-glutamate and 2% B27 with antioxidants supplement on DIV (days in vitro) 3 and 5. On DIV7, VM cultures were fed with media containing B27 supplement minus antioxidants (Invitrogen). Thereafter, freshly prepared 6-OHDA (100 µM in 20 µM ascorbic acid saline solution) or saline (with 20 µM ascorbic acid) was added to the wells on DIV 10. Following 2-h incubation, cultures were washed with feed media plus ( −) AO B27 three times. DPP-4 inhibitor (PF-00734,200), incretins, or vehicle was added to the well at the last wash as a post-treatment strategy. Cells were returned to a 37°C incubator for 22 h and then fixed with 4% paraformaldehyde (PFA) for immunoreactivity evaluation.

[2] = tested on: SH-SY5Y human neuroblastoma cells; assay: 6-OHDA-mediated cell loss in SH-SY5Y cells (TOPRO-3 cell density); assay type: cell-based; conditions: 6-OHDA 100 µM 2 h, GLP-1 or GIP 10 nM, DPP-4 inhibitor 1 µM, read at 24 h
Method: Five minutes later, the cells were treated with vehicle or freshly prepared 6-OHDA (100 µM) for 2 h. GIP, GLP-1, and DPP-4 inhibitor or vehicle were added to the media again after three washes. […] The cells were then washed in PBS for three times and, thereafter, were imaged using a Licor Odyssey IR scanner. Cell density in each well was analyzed by using Licor Odyssey In Cell Western analyses software v 3.0, as previously described [45].
In our study, TOPRO-3 was applied to cells after fixation with 4% PFA. The cells were washed in PBS for three times and, thereafter, were imaged using a Licor Odyssey IR scanner. Under these conditions, it is likely that any dead cells were washed away before quantifying fluorescence.

p-glycoprotein = conditions: in relation to renal clearance; cited from earlier work
6-OHDA lesioned rats = conditions: rats with unilateral medial forebrain bundle 6-OHDA lesion; cited from earlier work
[3] = tested on: organic anion transporter 3 (hOAT3); conditions: in relation to renal clearance; cited from earlier work
[4] = set-up: method as in Reference 33 within 44; conditions: Merck's data on file; ref Reference 33 within 44; cited from earlier work
in vivo = conditions: both, Macaca mulatta
[5] = cited from earlier work
[6] = Plasma sitagliptin pharmacokinetics in nonhuman primates (LC-MS, noncompartmental analysis)
Method: Animals included Macaca mulatta of 7 to 20 kg weight, mixed gender, 12 to 19 years of age (n = 5 to 7 per group). […] Commercially prepared monkey chow was distributed twice per day along with daily food enrichment, and water was available ad libitum. Monkeys were observed daily for food consumption and overall well-being.
(§1) Immediately thereafter, an oral glucose tolerance test was performed to stimulate incretin secretion. This is designated as time zero (i.e., 0) in Figs. 2, 4 and 5.
(§2) Further samples were collected without the inhibitor for DPP-4 analysis to permit quantification of DPP-4 inhibition. Incretin levels were measured with the following assays: Active GLP-1 ((ver 2 kit) Meso Scale Diagnostic), Active GIP (ELISA kit—IBL America), DPP-4 activity was evaluated by fluorometric assay using a DPPIV/CD26 assay kit for biological samples ((BML-AK498-0001) Enzo Life Sciences, Farmingdale, NY).
A noncompartmental approach to pharmacokinetic analysis was employed using Phoenix WinNonlin v8.3 (Certara Corp, Cary, NC). The maximum plasma concentration (Cmax) and the time of maximum plasma concentration (Tmax) were recorded as observed values. […] AUCINF (the AUC from time zero to infinity) was calculated by extrapolation by dividing Clast (the last measurable drug concentration) by the rate constant of the terminal phase, lZ (Kel). This constant was determined from the slope of the terminal phase of the concentration–time curve using uniformly weighted least squares as the estimation procedure and acceptance criteria of (i) adjusted r^2 > 0.8 and (ii) includes > 3 time points in the terminal phase.

GLP-1 and GIP = assay: CSF GLP-1 and GIP levels in NHPs (both incretins, summary in text); assay type: in vivo, Macaca mulatta; conditions: CSF at 3 and 5 h after day 6 sitagliptin, NHP
Method: as §1, §2

[7] = both, rhesus monkey, in vivo, po, 5 mg/kg
[8] = both, rhesus monkey, in vivo, po, 20 mg/kg
[9] = both, rhesus monkey, in vivo, po, 100 mg/kg

Compound: glucose-dependent insulinotropic polypeptide [GIP]
- Effect on 6-OHDA-mediated reduction in TH cell density [1]: partially but significantly mitigated; also recorded: significant amelioration
- Effect on 6-OHDA-mediated cell loss (TOPRO-3 fluorescence cell density) [2]: significantly antagonized; also recorded: ameliorated; also recorded: fully protected against cell loss

Compound: N[C@@H](CC(=O)N1CCn2c(nnc2C(F)(F)F)C1)Cc1cc(F)c(F)cc1F [sitagliptin]
- Substrate for p-glycoprotein (p-glycoprotein): substrate
- Effect on dopaminergic neurons, dopamine levels and methamphetamine-mediated rotation (6-OHDA lesioned rats): mitigated the loss of dopaminergic neurons and dopamine levels
- Substrate for organic anion transporter 3 (hOAT3) [3]: substrate
- Maximally well-tolerated sitagliptin dose in NHPs [4]: 100 mg/kg
- Kp at 3 h (in vivo): 0.01
- Kp at 5 h (in vivo): 0.01
- log P [5]: 1.5
- Tmax ([6]; 20 mg/kg oral once daily, day 6, NHP plasma): 2 h
- Tmax ([6]; both, Macaca mulatta, in vivo, po): 2 h
- AUC(0-inf) [6, 7]: 8.81 µM·h
- AUC(0-t) [6, 7]: 7.83 µM·h
- Cmax [6, 7]: 0.768 µM
- half-life [6, 7]: 8.4 h
- k el [6, 7]: 2.28e-05 s⁻¹
- AUC(0-inf) [6, 8]: 50.9 µM·h
- AUC(0-t) [6, 8]: 49.6 µM·h
- Cmax [6, 8]: 7.06 µM
- half-life [6, 8]: 5 h
- k el [6, 8]: 3.87e-05 s⁻¹
- AUC(0-inf) [6, 9]: 214 µM·h
- AUC(0-t) [6, 9]: 193 µM·h
- Cmax [6, 9]: 13.7 µM
- Tmax [6, 9]: 2 to 8 h
- half-life [6, 9]: 6.7 h
- k el [6, 9]: 2.85e-05 s⁻¹
- Cmax ([6]; both, rhesus, Macaca mulatta, in vivo, po, 5 mg/kg): 0.768 µM
- Elevation of CSF levels of GLP-1 and GIP vs placebo (GLP-1 and GIP): 2.0- to 3.4 fold

Compound: glucagon-like peptide-1 (HAEGTFTSDVSSYLEGQAAKEFIAWLVKGR; ends and bridges not checked; UniProt P01275 98-127, looked up) [GLP-1, endogenous incretin hormone added to cultures at 10 nM]
- Effect on 6-OHDA-mediated reduction in TH cell density [1]: partially but significantly mitigated
- Effect on 6-OHDA-mediated reduction in TH cell density ([1]; listed as GLP‐1): significant amelioration
- Effect on 6-OHDA-mediated cell loss (TOPRO-3 fluorescence cell density) [2]: partially mitigated; also recorded: ameliorated

Compound: O=C([C@@H]1C[C@H](N2CCN(c3ncccn3)CC2)CN1)N1CCC(F)(F)C1 [PF-00734,200, gosogliptin]
- Effect of co-administered DPP-4 inhibitor on protective response of GIP and GLP-1 (TH cell density) [1]: significantly potentiated
- Effect of co-administered DPP-4 inhibitor on protective response of GIP and GLP-1 (TH cell density) ([1]; listed as DPP-4I): further reduced
- Effect on dopaminergic neurons, dopamine levels and methamphetamine-mediated rotation (6-OHDA lesioned rats): mitigated the loss of dopaminergic neurons and dopamine levels
- Effect on 6-OHDA-mediated cell loss (TOPRO-3 fluorescence cell density) ([2]; listed as DPP-4I): ameliorated
- Effect on 6-OHDA-mediated cell loss (TOPRO-3 fluorescence cell density) ([2]; listed as DPP-4 inhibitor): partially mitigated
